Results published in ChEMBL document CHEMBL5576120, “Discovery and In Vivo Efficacy of AZ-PRMT5i-1, a Novel PRMT5 Inhibitor with High MTA Cooperativity” (J Med Chem, 2024).
pIC50, pKi: −log10 of the molar value. In brackets after ≈: the same amount, converted by molar mass.

What was measured:
physchem [1] = conditions: buffer, pH 7.4
Description: Lipophilicity, logD of compound at pH 7.4

[2] = Intrinsic clearance in rat hepatocytes assessed per million cells; format: ADME, cell-based, Hepatocyte; conditions: read-out: CLH
in vitro = conditions: human, Caco-2
Description: Apparent permeability across apical to basal side of human Caco-2 cells at 10 uM

[3] = molecular target: Protein arginine N-methyltransferase 5 (Homo sapiens, UniProt O14744)
Description: Inhibition of PRMT5 in human HCT-116 cells with MTAP KO assessed as decrease in SMDA level incubated for 48 hrs by immunofluorescence analysis

PRMT5/MEP50 complex [4] = molecular target: T1, PRMT5/MEP50 complex (Homo sapiens, UniProt O14744); assay: biochemical
Description: Inhibition of PRMT5 (1 to 637 residues)/MEP504 (2 to 342 residues)(unknown origin) expressed in baculovirus infected Sf21 insect cells using histone H4/SAM as substrate incubated for 5 hrs by MTase Glo assay

PRMT5/MEP50 complex [5] = molecular target: T1, PRMT5/MEP50 complex; assay: biochemical; remark: listed apart in the source
Description: Inhibition of PRMT5 (1 to 637 residues)/MEP504 (2 to 342 residues)(unknown origin) expressed in baculovirus infected Sf21 insect cells using histone H4/SAM as substrate incubated for 5 hrs in presence of MTA by MTase Glo assay

HCT-116 = assay: Cooperativity fold, ratio of IC50 for PRMT5 in human HCT-116 cells expressing wild-type MTAP assessed as decrease in SMDA level to IC50 for PRMT5 in human HCT-116 cells with MTAP KO assessed as decrease in SMDA level; format: cell-based
[6] = Intrinsic clearance in human hepatocytes assessed per million cells; format: ADME, cell-based, Hepatocyte; conditions: read-out: CLH
[7] = Unbound protein binding in rat plasma by equilibrium dialysis; format: ADME, cell-free
[8] = Volume of distribution at steady state in Wistar Han rat at 1 mg/kg, po or 0.5 mg/kg, iv; format: ADME, organism-based; conditions: in vivo
[9] = Oral bioavailability at steady state in Wistar Han rat at 1 mg/kg; format: ADME, organism-based; conditions: in vivo
[10] = Half life in Wistar Han rat at 1 mg/kg, po or 0.5 mg/kg, iv; format: ADME, organism-based; conditions: in vivo
physchem [11] = conditions: phosphate buffer, pH 7.4
Lu-99 cell line [12] = assay: Antitumor activity against human Lu-99 cells xenografted in nude mouse assessed as inhibition of SDMA level at 100 mg/kg, po bid measured after 21 days relative to control; format: functional; conditions: Lu-99, 504 h, time 21 day
[13] = Half life in CD-1 mouse at 1 mg/kg, po or 0.5 mg/kg, iv; format: ADME, organism-based; conditions: in vivo
[14] = Antitumor activity against human PDX GA2254 cells xenografted in Balb/c nude mouse at 10 mg/kg, po bid measured for 21 days relative to control; format: functional; conditions: PDX GA2254, 504 h, time 21 day, read-out: TGI
[15] = Antitumor activity against human PDX GA2254 cells xenografted in Balb/c nude mouse assessed as inhibition of SDMA level at 1 mg/kg, po bid measured for 21 days relative to control; format: functional; conditions: PDX GA2254, 504 h, time 21 day, read-out: TGI
Translocator protein = Translocator protein (Homo sapiens, UniProt P30536); assay: Inhibition of human TSPO
[16] = Oral bioavailability in CD-1 mouse at 1 mg/kg; format: ADME, organism-based; conditions: in vivo
[17] = Antitumor activity against human PDX GA2254 cells xenografted in Balb/c nude mouse assessed as inhibition of SDMA level at 10 mg/kg, po bid measured for 21 days relative to control; format: functional; conditions: PDX GA2254, 504 h, time 21 day, read-out: TGI
[18] = Toxicity in nude mouse xenografted with human Lu-99 cells assessed as body weight loss upto 100 mg/kg, po bid measured for 21 days; format: organism-based; conditions: in vivo, 504 h, time 21 day
[19] = Antitumor activity against human PDX GA2254 cells xenografted in Balb/c nude mouse assessed as inhibition of SDMA level at 50 mg/kg, po bid measured for 21 days relative to control; format: functional; conditions: PDX GA2254, 504 h, time 21 day, read-out: TGI
Lu-99 cell line [20] = assay: Antitumor activity against human Lu-99 cells xenografted in nude mouse assessed as tumor growth inhibition administered orally twice a day measured for 21 days; format: functional, cell-based; conditions: dose 1-10 mg/kg, route po, time 21.0 day
[21] = Volume of distribution at steady state in CD-1 mouse at 1 mg/kg, po or 0.5 mg/kg, iv; format: ADME, organism-based; conditions: in vivo
Lu-99 cell line [22] = assay: Antiproliferative activity against human Lu-99 cells incubated for 7 days; format: functional, cell-based; conditions: Lu-99, 168 h
Lu-99 cell line [23] = assay: Antitumor activity against human Lu-99 cells xenografted in nude mouse at 100 mg/kg, po bid measured after 21 days relative to control; format: functional; conditions: Lu-99, 504 h, time 21 day, read-out: TGI
Lu-99 cell line [24] = assay: Antitumor activity against human Lu-99 cells xenografted in nude mouse assessed as inhibition of SDMA level administered orally twice a day measured for 21 days; format: functional, cell-based; conditions: dose 1-10 mg/kg, route po, time 21.0 day
[25] = Antitumor activity against human PDX GA2254 cells xenografted in Balb/c nude mouse assessed as tumor regression at 50 mg/kg, po bid measured for 21 days relative to control; format: functional; conditions: time 21 day

T1 sequence (O14744 whole entry): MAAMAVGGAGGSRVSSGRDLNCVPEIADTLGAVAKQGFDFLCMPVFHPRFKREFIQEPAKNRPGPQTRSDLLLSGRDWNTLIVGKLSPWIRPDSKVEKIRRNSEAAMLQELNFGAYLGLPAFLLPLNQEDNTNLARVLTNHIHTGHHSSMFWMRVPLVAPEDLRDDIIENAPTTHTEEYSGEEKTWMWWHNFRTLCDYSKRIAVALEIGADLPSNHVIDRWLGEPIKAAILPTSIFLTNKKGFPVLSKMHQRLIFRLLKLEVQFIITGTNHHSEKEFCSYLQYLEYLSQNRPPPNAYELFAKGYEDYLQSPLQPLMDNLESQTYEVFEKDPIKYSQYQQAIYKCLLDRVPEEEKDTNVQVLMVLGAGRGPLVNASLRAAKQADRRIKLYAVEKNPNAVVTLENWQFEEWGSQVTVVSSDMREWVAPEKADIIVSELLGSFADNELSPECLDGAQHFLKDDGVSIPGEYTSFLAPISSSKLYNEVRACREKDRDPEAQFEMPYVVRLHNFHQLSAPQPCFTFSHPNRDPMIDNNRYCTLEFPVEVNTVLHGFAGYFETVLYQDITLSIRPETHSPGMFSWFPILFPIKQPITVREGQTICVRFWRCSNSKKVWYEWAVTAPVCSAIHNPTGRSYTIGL
T1 sequence (Q9BQA1 whole entry, further chain): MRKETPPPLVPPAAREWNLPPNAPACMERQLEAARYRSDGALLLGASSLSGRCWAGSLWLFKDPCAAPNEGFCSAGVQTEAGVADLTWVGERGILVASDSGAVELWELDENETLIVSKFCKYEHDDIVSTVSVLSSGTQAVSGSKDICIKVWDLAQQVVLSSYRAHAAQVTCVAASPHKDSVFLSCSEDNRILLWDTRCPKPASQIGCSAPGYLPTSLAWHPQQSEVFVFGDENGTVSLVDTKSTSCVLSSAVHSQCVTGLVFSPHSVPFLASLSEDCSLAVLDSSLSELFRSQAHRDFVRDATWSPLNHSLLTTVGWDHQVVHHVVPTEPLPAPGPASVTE
Protein arginine N-methyltransferase 5, sequence (O14744 whole entry): as the sequence (O14744 whole entry) above
Translocator protein, sequence (P30536 whole entry): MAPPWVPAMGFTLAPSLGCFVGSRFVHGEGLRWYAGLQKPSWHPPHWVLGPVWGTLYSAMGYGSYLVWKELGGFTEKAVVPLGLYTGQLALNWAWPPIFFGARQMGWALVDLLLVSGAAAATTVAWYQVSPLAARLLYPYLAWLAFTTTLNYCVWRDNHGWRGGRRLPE

Compound	logD (physchem [1])	hepatocyte CLint [2]	Papp A→B at 10 µM (in vitro)	pIC50 [3]	further results
N=C(N)Nc1ncc(CN2C(=O)c3ccccc3C2C(=O)N(Cc2ccc(F)cc2)C2CC2)s1 (configuration not stated)	2.6	64 µL/min/1e6 cells			
O=C1c2cc(F)ccc2[C@]2(CCN(Cc3ccc(F)cc3)C2=O)N1Cc1cc2cccnc2[nH]1	3.4	193 µL/min/1e6 cells	29 ×10⁻⁶ cm/s		
N=C(N)Nc1nnc(CN2C(=O)c3ccccc3C2C(=O)NCc2ccc(F)cc2)s1 (configuration not stated)	1.7	23 µL/min/1e6 cells			
COc1ccc2c(c1)C(=O)N(Cc1cnc(NC(=N)N)s1)C2C(=O)NCc1ccc(F)cc1 (configuration not stated)	2.3	22 µL/min/1e6 cells		6.42	pIC50 (PRMT5/MEP50 complex [4]): 7.29; pIC50 (PRMT5/MEP50 complex [5]): 7.92; Ratio IC50 (HCT-116): 7.7
N=C(N)Nc1ncc(CN2C(=O)c3cc(F)ccc3C2C(=O)NCc2ccc(F)cc2)s1 (configuration not stated)	2.5	13 µL/min/1e6 cells			
O=C(NCc1ccc(F)cc1)C1c2ccccc2C(=O)N1Cc1cc2ncccc2[nH]1 (configuration not stated)	3	70 µL/min/1e6 cells			
O=C1c2cc(F)ccc2[C@@]2(CCN(Cc3ccc(F)cc3)C2=O)N1Cc1cc2cccnc2[nH]1	3.4	188 µL/min/1e6 cells			
N#Cc1ccc2c(c1)C(C(=O)NCc1ccc(F)cc1)N(Cc1cnc(NC(=N)N)s1)C2=O (configuration not stated)	2.1	13 µL/min/1e6 cells			
Nc1ccc2[nH]c(CN3C(=O)c4cc(F)ccc4[C@]34CCN(Cc3ccc(F)cc3)C4=O)nc2n1		5 µL/min/1e6 cells		5.89	hepatocyte CLint [6]: < 1 µL/min/1e6 cells
N=C(N)Nc1ncc(CN2C(=O)c3ccccc3C2C(=O)NCc2ccc(F)cc2)s1 (configuration not stated)		34 µL/min/1e6 cells			fraction unbound [7]: 0.19; Vdss [8]: 1.6 L/kg; bioavailability [9]: 2%; half-life [10]: 66 min
O=C(NCc1ccc(F)cc1)C1c2ccccc2C(=O)N1Cc1cc2cccnc2[nH]1 (configuration not stated)	3.3	131 µL/min/1e6 cells	90 ×10⁻⁶ cm/s		
CN(Cc1ccc(F)cc1)C(=O)C1c2ccccc2C(=O)N1Cc1cnc(NC(=N)N)s1 (configuration not stated)	2	84 µL/min/1e6 cells			
Nc1ccc2cc(CN3C(=O)c4cc(F)ccc4[C@]34CCN(Cc3ccc(F)cc3)C4=O)[nH]c2n1	2.5	12 µL/min/1e6 cells	31 ×10⁻⁶ cm/s	6.85	pIC50 (PRMT5/MEP50 complex [5]): 8.05; Ratio IC50 (HCT-116): 31
Nc1ccc2oc(CN3C(=O)c4cc(F)ccc4[C@]34CCN(Cc3ccc(F)cc3)C4=O)cc2n1	2.3	59 µL/min/1e6 cells	72 ×10⁻⁶ cm/s		solubility at 24 h (physchem [11]): 243 µM (≈ 115 µg/mL)
Nc1nc2cc(CN3C(=O)c4cc(F)ccc4[C@]34CCN(Cc3ccc(F)cc3)C4=O)[nH]c2cc1F	2.8	< 5 µL/min/1e6 cells	48 ×10⁻⁶ cm/s		inhibition in vivo at 100 mg/kg (Lu-99 cell line [12]): 95%; half-life [13]: 204 min; inhibition in vivo at 10 mg/kg [14]: 33%; inhibition in vivo at 1 mg/kg [15]: 51%; pKi (Translocator protein): 6.21; hepatocyte CLint [6]: < 1 µL/min/1e6 cells; bioavailability [16]: 101%; solubility at 24 h (physchem [11]): 8 µM (≈ 3.93 µg/mL); Vdss [8]: 2.4 L/kg; inhibition in vivo at 10 mg/kg [17]: 93%; Activity [18]: Non-Toxic; inhibition in vivo at 50 mg/kg [19]: 97%; bioavailability [9]: 35%; half-life [10]: 108 min; inhibition (Lu-99 cell line [20]): Dose-Dependent Effect; Vdss [21]: 2.1 L/kg; pIC50 (Lu-99 cell line [22]): 6.91; inhibition in vivo at 100 mg/kg (Lu-99 cell line [23]): 71%; inhibition (Lu-99 cell line [24]): Dose-Dependent Effect; Activity [25]: 50%
O=C1c2cc(F)ccc2[C@]2(CCN(Cc3ccc(F)cc3)C2=O)N1Cc1cc2ncccc2[nH]1	3.1	246 µL/min/1e6 cells			
O=C(NCc1ccc(F)cc1)C1c2ccc(F)cc2C(=O)N1Cc1cc2cccnc2[nH]1 (configuration not stated)	3.2	123 µL/min/1e6 cells			
Nc1cc(C(F)F)c2[nH]c(CN3C(=O)c4cc(F)ccc4[C@]34CCN(Cc3ccc(F)cc3)C4=O)cc2n1	2.9	15 µL/min/1e6 cells	56 ×10⁻⁶ cm/s		solubility at 24 h (physchem [11]): 86 µM (≈ 45 µg/mL)
O=C(NCc1ccc(F)cc1)C1c2ccc(F)cc2C(=O)N1Cc1cc2ncccc2[nH]1 (configuration not stated)	3.4	112 µL/min/1e6 cells			
COc1cccc2c1C(=O)N(Cc1cnc(NC(=N)N)s1)C2C(=O)NCc1ccc(F)cc1 (configuration not stated)	1.9	11 µL/min/1e6 cells			
O=C1c2cc(F)ccc2[C@]2(CCN(Cc3ccc(F)cc3)C2=O)N1Cc1cc2cnccc2[nH]1	2.4	3 µL/min/1e6 cells		< 4.52	pIC50 (PRMT5/MEP50 complex [5]): 6.01
Nc1ccc2[nH]c(CN3C(=O)c4cc(F)ccc4[C@]34CCN(Cc3ccc(F)cc3)C4=O)cc2n1	2.2	13 µL/min/1e6 cells	2.7 ×10⁻⁶ cm/s		half-life [13]: 53.4 min; hepatocyte CLint [6]: < 1 µL/min/1e6 cells; bioavailability [16]: 3%; solubility at 24 h (physchem [11]): 106 µM (≈ 50.2 µg/mL); Vdss [8]: 7.8 L/kg; half-life [10]: 30 min; Vdss [21]: 2.7 L/kg
CNC(=N)Nc1ncc(CN2C(=O)c3cc(F)ccc3C2C(=O)NCc2ccc(F)cc2)s1 (configuration not stated)	2.7	19 µL/min/1e6 cells	14 ×10⁻⁶ cm/s		solubility at 24 h (physchem [11]): 8 µM (≈ 3.76 µg/mL); Vdss [8]: 2.6 L/kg; bioavailability [9]: 20%; half-life [10]: 42.6 min
Cn1c(CN2C(=O)c3cc(F)ccc3[C@]23CCN(Cc2ccc(F)cc2)C3=O)cc2nc(N)ccc21	2.2	21 µL/min/1e6 cells		5.32	solubility at 24 h (physchem [11]): 110 µM (≈ 53.6 µg/mL); Ratio IC50 (HCT-116): > 5
O=C1c2cc(F)ccc2[C@]2(CCN(Cc3ccc(F)cc3)C2=O)N1Cc1cc2ccncc2[nH]1	2.8	6 µL/min/1e6 cells		5.19	pIC50 (PRMT5/MEP50 complex [5]): 6.43; Ratio IC50 (HCT-116): > 5
N=C(N)Nc1cc(CN2C(=O)c3ccccc3C2C(=O)NCc2ccc(F)cc2)ccn1 (configuration not stated)	0.9	17 µL/min/1e6 cells		< 4.52	pIC50 (PRMT5/MEP50 complex [4]): 4.57; pIC50 (PRMT5/MEP50 complex [5]): 5.53
Nc1ccc2ncc(CN3C(=O)c4cc(F)ccc4[C@]34CCN(Cc3ccc(F)cc3)C4=O)cc2n1	2.2	22 µL/min/1e6 cells	27 ×10⁻⁶ cm/s	6.62	solubility at 24 h (physchem [11]): 55 µM (≈ 26.7 µg/mL); Ratio IC50 (HCT-116): 18
COc1cc(N)nc2cc(CN3C(=O)c4cc(F)ccc4[C@]34CCN(Cc3ccc(F)cc3)C4=O)[nH]c12	1.8	7 µL/min/1e6 cells	1.4 ×10⁻⁶ cm/s	8.40	solubility at 24 h (physchem [11]): 610 µM (≈ 307 µg/mL); Ratio IC50 (HCT-116): 7.2
